Experimental data taken from US11926613B2, “Kinase inhibitors for the treatment of central and peripheral nervous system disorders” (UNIVERSITY OF MIAMI, priority 2017, dated 2024).

Legend:
[1] = test system: neurons from hippocampi of E18 rat embryos; assay: Neurite growth length (% NTL) in cultured E18 rat hippocampal neurons, 9-point dose response, 48 hours; type: cell-based; conditions: Rattus norvegicus, Neuron, 48 h; for activity at 0.078 µM: 78 nM; for activity at 0.156 µM: 156 nM; for activity at 0.312 µM: 312 nM; for activity at 0.625 µM: 625 nM
Outline: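 Dissociated E18 rat hippocampal neurons at 1500 cells/well on PDL were exposed 48 h to 9 concentrations from 20 μM down to 0.078125 μM. After PFA fixation and βIII-tubulin/Hoechst staining, ArrayScan imaging traced neurites in at least 200–300 neurons per condition to give % NTL.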

Primary Neurons = assay: HCS neurite outgrowth assay (High Content Screening with Primary Neurons); type: cell-based; conditions: Primary neuron

Compound	activity at 0.078 µM [1]	activity at 0.156 µM [1]	activity at 0.312 µM [1]	activity at 0.625 µM [1]	activity at 1.25 µM [1]	activity at 2.5 µM [1]	activity at 5 µM [1]	activity at 10 µM [1]	activity at 20 µM [1]	EC50 (Primary Neurons)
COc1ccc(O)c(C(=O)c2ccc(C(=O)N[C@@H]3CNC[C@H]3NC(=O)c3ccc4c(cnn4C)c3)cc2)c1F [Example A53, N-[(3R,4R)-4-[4-(2-fluoro-6-hydroxy-3-methoxybenzoyl)benzamido]pyrrolidin-3-yl]-1-methyl-1H-indazole-5-carboxamide]	90%	82.5%	79.3%	76.3%	85.8%	88.5%	90.1%	91.9%	70%	0.814 µM
COc1ccc(O)c(C(=O)c2ccc(C(=O)N[C@@H]3CNC[C@H]3NC(=O)c3ccnc(N)c3)cc2)c1F [Example A54, 2-amino-N-[(3R,4R)-4-[4-(2-fluoro-6-hydroxy-3-methoxybenzoyl)benzamido]pyrrolidin-3-yl]pyridine-4-carboxamide]	83.1%	79.9%	84.3%	84.1%	94.7%	105%	120%	151%	228%	> 20 µM
COc1ccc(O)c(C(=O)c2ccc(C(=O)N[C@@H]3CNC[C@H]3NC(=O)c3ccnc4[nH]ccc34)cc2)c1F [Example A56, N-[(3R,4R)-4-[4-(2-fluoro-6-hydroxy-3-methoxybenzoyl)benzamido]pyrrolidin-3-yl]-1H-pyrrolo[2,3-b]pyridine-4-carboxamide]	128%	137%	131%	133%	165%	196%	267%	375%	488%	8.54 µM
COc1ccc(O)c(C(=O)c2ccc(C(=O)N[C@@H]3CNC[C@H]3NC(=O)c3ccc4cn[nH]c4c3)cc2)c1F [Example A57, N-[(3R,4R)-4-[4-(2-fluoro-6-hydroxy-3-methoxybenzoyl)benzamido]pyrrolidin-3-yl]-1H-indazole-6-carboxamide]	92.2%	97.8%	95.1%	93.9%	97.3%	93.5%	105%	107%	111%	> 20 µM
COc1ccc(O)c(C(=O)c2ccc(C(=O)N[C@@H]3CNC[C@H]3NC(=O)c3ccc4[nH]nnc4c3)cc2)c1F [Example A58, N-[(3R,4R)-4-[4-(2-fluoro-6-hydroxy-3-methoxybenzoyl)benzamido]pyrrolidin-3-yl]-1H-1,2,3-benzotriazole-5-carboxamide]	88.3%	87.6%	79.3%	75.7%	76.3%	84.8%	85.3%	89.5%	88.6%	5.27 µM
COc1ccc(O)c(C(O)c2ccc(C(=O)N[C@@H]3CNC[C@H]3NC(=O)c3ccncc3)cc2)c1F (stereo partly drawn) [Example A59, N-[(3R,4R)-4-{4-[(2-fluoro-6-hydroxy-3-methoxyphenyl)(hydroxy)methyl]benzamido}pyrrolidin-3-yl]pyridine-4-carboxamide]	91.9%	82.8%	73.6%	82.3%	76.7%	91.2%	95.4%	111%	106%	7.13 µM
Cc1cc(C(=O)N[C@@H]2CNC[C@H]2NC(=O)c2ccncc2)ccc1C(=O)c1ccccc1O [Example A64, N-[(3R,4R)-4-[4-(2-hydroxybenzoyl)-3-methylbenzamido]pyrrolidin-3-yl]pyridine-4-carboxamide]	91.3%	99.8%	107%	105%	116%	129%	124%	121%	126%	0.593 µM
O=C(N[C@@H]1CNC[C@H]1NC(=O)c1ccc(C(=O)c2ccccc2O)cc1Cl)c1ccncc1 [Example A65, N-[(3R,4R)-4-[2-chloro-4-(2-hydroxybenzoyl)benzamido]pyrrolidin-3-yl]pyridine-4-carboxamide]	108%	117%	123%	113%	126%	129%	128%	150%	161%	7.11 µM
Nc1nccc(C(=O)N[C@@H]2CNC[C@H]2NC(=O)c2ccc(C(=O)c3ccccc3O)c(Cl)c2)n1 [Example A66, 2-amino-N-[(3R,4R)-4-[3-chloro-4-(2-hydroxybenzoyl)benzamido]pyrrolidin-3-yl]pyrimidine-4-carboxamide]	113%	107%	122%	111%	122%	129%	129%	145%	161%	2.33 µM
O=C(N[C@@H]1CNC[C@H]1NC(=O)c1ccc(C(=O)c2ccccc2O)c(Cl)c1)c1ccncc1 [Example A67, N-[(3R,4R)-4-[3-chloro-4-(2-hydroxybenzoyl)benzamido]pyrrolidin-3-yl]pyridine-4-carboxamide]	94.2%	97.9%	104%	104%	112%	106%	108%	120%	128%	> 20 µM
COc1cc(C(=O)c2ccccc2O)ccc1C(=O)N[C@@H]1CNC[C@H]1NC(=O)c1ccnc(N)n1 [Example A68, 2-amino-N-[(3R,4R)-4-[4-(2-hydroxybenzoyl)-2-methoxybenzamido]pyrrolidin-3-yl]pyrimidine-4-carboxamide]	101%	95.7%	94.8%	91.2%	102%	101%	96.8%	102%	94.3%	1.24 µM
COc1cc(C(=O)c2ccccc2O)ccc1C(=O)N[C@@H]1CNC[C@H]1NC(=O)c1ccncc1 [Example A69, N-[(3R,4R)-4-[4-(2-hydroxybenzoyl)-2-methoxybenzamido]pyrrolidin-3-yl]pyridine-4-carboxamide]	94.3%	96.2%	96%	107%	110%	112%	112%	119%	117%	0.401 µM
Nc1nccc(C(=O)N[C@@H]2CNC[C@H]2NC(=O)c2ccc(C(=O)c3cccc(Cl)c3O)cc2)n1 [Example A70, 2-amino-N-[(3R,4R)-4-[4-(3-chloro-2-hydroxybenzoyl)benzamido]pyrrolidin-3-yl]pyrimidine-4-carboxamide]	103%	107%	115%	122%	123%	117%	122%	135%	145%	> 20 µM
O=C(N[C@@H]1CNC[C@H]1NC(=O)c1ccc(C(=O)c2cccc(Cl)c2O)cc1)c1ccncc1 [Example A71, N-[(3R,4R)-4-[4-(3-chloro-2-hydroxybenzoyl)benzamido]pyrrolidin-3-yl]pyridine-4-carboxamide]	94.8%	99%	105%	109%	102%	109%	119%	117%	124%	2.15 µM
COc1cccc(C(=O)c2ccc(C(=O)N[C@@H]3CNC[C@H]3NC(=O)c3ccnc(N)n3)cc2)c1O [Example A72, 2-amino-N-[(3R,4R)-4-[4-(2-hydroxy-3-methoxybenzoyl)benzamido]pyrrolidin-3-yl]pyrimidine-4-carboxamide]	96.4%	94%	97.7%	108%	106%	105%	113%	127%	157%	> 20 µM
COc1cccc(C(=O)c2ccc(C(=O)N[C@@H]3CNC[C@H]3NC(=O)c3ccncc3)cc2)c1O [Example A73, N-[(3R,4R)-4-[4-(2-hydroxy-3-methoxybenzoyl)benzamido]pyrrolidin-3-yl]pyridine-4-carboxamide]	96.7%	110%	102%	105%	125%	117%	121%	136%	159%	> 20 µM
